Experimental findings from ChEMBL document CHEMBL4387762, “Multicomponent synthesis of α-acylamino and α-acyloxy amide derivatives of desmycosin and their activity against gram-negative bacteria” (2019) are described below.

Values after ≈ are worked out from the molar mass of the structure shown.

Assay type in all cases: functional
Assay [1] relates to Aliivibrio fischeri. Nature of the assay: Antimicrobial activity against Aliivibrio fischeri DSM507 assessed as growth inhibition at 0.1 uM incubated for 24 hrs by luminescence based assay relative to control. Conditions: DSM507, 24 h, read-out: GI.
Assay [2] relates to Aliivibrio fischeri. Nature of the assay: Antimicrobial activity against Aliivibrio fischeri DSM507 assessed as growth inhibition at 1 uM incubated for 24 hrs by luminescence based assay relative to control. The conditions noted are these: DSM507, 24 h, read-out: GI.
The subject of assay [3] is Aliivibrio fischeri. Nature of the assay: Antimicrobial activity against Aliivibrio fischeri DSM507 assessed as growth inhibition incubated for 24 hrs by luminescence based assay. The conditions noted are these: DSM507, 24 h.

In the case of `CCC(=O)N(C(C)C)C(C[C@H]1C[C@@H](C)C(=O)/C=C/C(C)=C/[C@H](CO[C@H]2O[C@@H](C)[C@H](O)[C@H](OC)[C@@H]2OC)[C@@H](CC)OC(=O)C[C@@H](O)[C@H](C)[C@H]1O[C@@H]1O[C@H](C)[C@@H](O)[C@H](N(C)C)[C@H]1O)C(=O)NC(C)(C)C` (mixture of isomers), the inhibition of growth at 0.1 µM in the assay with Aliivibrio fischeri [1] stood at 38%. In addition, in the assay with Aliivibrio fischeri [2], the inhibition of growth at 1 µM came to 71%.
On the same counts, the results for `CCCN(C(=O)c1ccccc1)C(C[C@H]1C[C@@H](C)C(=O)/C=C/C(C)=C/[C@H](CO[C@H]2O[C@@H](C)[C@H](O)[C@H](OC)[C@@H]2OC)[C@@H](CC)OC(=O)C[C@@H](O)[C@H](C)[C@H]1O[C@@H]1O[C@H](C)[C@@H](O)[C@H](N(C)C)[C@H]1O)C(=O)NC(C)(C)C` (mixture of isomers) are 16% and 41%.
With `CC[C@@H](C)CN(C(=O)c1ccccc1)C(C[C@H]1C[C@@H](C)C(=O)/C=C/C(C)=C/[C@H](CO[C@H]2O[C@@H](C)[C@H](O)[C@H](OC)[C@@H]2OC)[C@@H](CC)OC(=O)C[C@@H](O)[C@H](C)[C@H]1O[C@@H]1O[C@H](C)[C@@H](O)[C@H](N(C)C)[C@H]1O)C(=O)NC(C)(C)C` (some centres undefined), in the assay with Aliivibrio fischeri [1], the inhibition of growth at 0.1 µM amounted to 25%. In addition, in the assay with Aliivibrio fischeri [2], the inhibition of growth at 1 µM was determined as 52%.
On the same counts, the results for `CCCCNC(=O)C(C[C@H]1C[C@@H](C)C(=O)/C=C/C(C)=C/[C@H](CO[C@H]2O[C@@H](C)[C@H](O)[C@H](OC)[C@@H]2OC)[C@@H](CC)OC(=O)C[C@@H](O)[C@H](C)[C@H]1O[C@@H]1O[C@H](C)[C@@H](O)[C@H](N(C)C)[C@H]1O)N(C)C(=O)CCC` (mixture of isomers) are 15% and 62%.
`CC[C@H]1OC(=O)C[C@@H](O)[C@H](C)[C@@H](O[C@@H]2O[C@H](C)[C@@H](O)[C@H](N(C)C)[C@H]2O)[C@@H](CC=O)C[C@@H](C)C(=O)/C=C/C(C)=C/[C@@H]1CO[C@H]1O[C@@H](C)[C@H](O)[C@H](OC)[C@@H]1OC`: the MIC (commonly the lowest concentration that inhibits growth of the organism) in the assay with Aliivibrio fischeri [3] was in the range of 2 to 4 µM (≈ 1.54 to 3.09 µg/mL). The inhibition of growth at 0.1 µM with Aliivibrio fischeri [1] came out at 57%. Moreover, the inhibition of growth at 1 µM in the assay with Aliivibrio fischeri [2] was found to be 84%.
Turning to `CC[C@H]1OC(=O)C[C@@H](O)[C@H](C)[C@@H](O[C@@H]2O[C@H](C)[C@@H](O)[C@H](N(C)C)[C@H]2O)[C@@H](CC(C(=O)NC(C)(C)C)N(CCCCN)C(=O)c2ccccc2)C[C@@H](C)C(=O)/C=C/C(C)=C/[C@@H]1CO[C@H]1O[C@@H](C)[C@H](O)[C@H](OC)[C@@H]1OC` (mixture of isomers), the inhibition of growth at 0.1 µM in the assay with Aliivibrio fischeri [1] was found to be 6%. For the same compound, in the assay with Aliivibrio fischeri [2], the inhibition of growth at 1 µM is 36%.
For `CCCCNC(=O)C(C[C@H]1C[C@@H](C)C(=O)/C=C/C(C)=C/[C@H](CO[C@H]2O[C@@H](C)[C@H](O)[C@H](OC)[C@@H]2OC)[C@@H](CC)OC(=O)C[C@@H](O)[C@H](C)[C@H]1O[C@@H]1O[C@H](C)[C@@H](O)[C@H](N(C)C)[C@H]1O)N(C(=O)c1ccccc1)C(C)C` (mixture of isomers), in that order: 31% and 57%.
As for `CC[C@H]1OC(=O)C[C@@H](O)[C@H](C)[C@@H](O[C@@H]2O[C@H](C)[C@@H](O)[C@H](N(C)C)[C@H]2O)[C@@H](CC(C(=O)NC(C)(C)C)N(C)C(=O)c2ccccc2)C[C@@H](C)C(=O)/C=C/C(C)=C/[C@@H]1CO[C@H]1O[C@@H](C)[C@H](O)[C@H](OC)[C@@H]1OC` (single isomer, unassigned), the MIC with Aliivibrio fischeri [3] is 2 to 4 µM (≈ 1.98 to 3.96 µg/mL).
As to `CC[C@H]1OC(=O)C[C@@H](O)[C@H](C)[C@@H](O[C@@H]2O[C@H](C)[C@@H](O)[C@H](N(C)C)[C@H]2O)[C@@H](C[C@@H](C(=O)NC(C)(C)C)N(C)C(C)=O)C[C@@H](C)C(=O)/C=C/C(C)=C/[C@@H]1CO[C@H]1O[C@@H](C)[C@H](O)[C@H](OC)[C@@H]1OC`, the inhibition of growth at 0.1 µM with Aliivibrio fischeri [1] was found to be 6%. The inhibition of growth at 1 µM in the assay with Aliivibrio fischeri [2] was found to be 11%.
As for `CC[C@H]1OC(=O)C[C@@H](O)[C@H](C)[C@@H](O[C@@H]2O[C@H](C)[C@@H](O)[C@H](N(C)C)[C@H]2O)[C@@H](CC(C(=O)NC(C)(C)C)N(C(=O)c2ccccc2)c2ccccc2)C[C@@H](C)C(=O)/C=C/C(C)=C/[C@@H]1CO[C@H]1O[C@@H](C)[C@H](O)[C@H](OC)[C@@H]1OC` (mixture of isomers), the inhibition of growth at 0.1 µM in the assay with Aliivibrio fischeri [1] was 22%. Moreover, the inhibition of growth at 1 µM with Aliivibrio fischeri [2] came out at 36%.
On the same counts, the results for `CCCC(=O)N(C(C)C)C(C[C@H]1C[C@@H](C)C(=O)/C=C/C(C)=C/[C@H](CO[C@H]2O[C@@H](C)[C@H](O)[C@H](OC)[C@@H]2OC)[C@@H](CC)OC(=O)C[C@@H](O)[C@H](C)[C@H]1O[C@@H]1O[C@H](C)[C@@H](O)[C@H](N(C)C)[C@H]1O)C(=O)NC(C)(C)C` (mixture of isomers) are 43% and 83%.
For `CC[C@H]1OC(=O)C[C@@H](O)[C@H](C)[C@@H](O[C@@H]2O[C@H](C)[C@@H](O)[C@H](N(C)C)[C@H]2O)[C@@H](CC(C(=O)NC(C)(C)C)N(C(=O)c2ccccc2)C(C)C)C[C@@H](C)C(=O)/C=C/C(C)=C/[C@@H]1CO[C@H]1O[C@@H](C)[C@H](O)[C@H](OC)[C@@H]1OC` (mixture of isomers), in that order: 54% and 79%.
On the same counts, the results for `CC[C@H]1OC(=O)C[C@@H](O)[C@H](C)[C@@H](O[C@@H]2O[C@H](C)[C@@H](O)[C@H](N(C)C)[C@H]2O)[C@@H](C[C@H](C(=O)NC(C)(C)C)N(C)C(C)=O)C[C@@H](C)C(=O)/C=C/C(C)=C/[C@@H]1CO[C@H]1O[C@@H](C)[C@H](O)[C@H](OC)[C@@H]1OC` are 12% and 64%.
`CCCC(=O)OC(C[C@H]1C[C@@H](C)C(=O)/C=C/C(C)=C/[C@H](CO[C@H]2O[C@@H](C)[C@H](O)[C@H](OC)[C@@H]2OC)[C@@H](CC)OC(=O)C[C@@H](O)[C@H](C)[C@H]1O[C@@H]1O[C@H](C)[C@@H](O)[C@H](N(C)C)[C@H]1O)C(=O)NC(C)(C)C` (some centres undefined): the inhibition of growth at 0.1 µM with Aliivibrio fischeri [1] turned out to be 58%. For the same compound, the inhibition of growth at 1 µM in the assay on Aliivibrio fischeri [2] was 90%.
For `CC[C@H]1OC(=O)C[C@@H](O)[C@H](C)[C@@H](O[C@@H]2O[C@H](C)[C@@H](O)[C@H](N(C)C)[C@H]2O)[C@@H](CC(C(=O)NC(C)(C)C)N(CCCCN=[N+]=[N-])C(=O)c2ccccc2)C[C@@H](C)C(=O)/C=C/C(C)=C/[C@@H]1CO[C@H]1O[C@@H](C)[C@H](O)[C@H](OC)[C@@H]1OC` (mixture of isomers), in that order: 46% and 64%.
On the same counts, the results for `CC[C@H]1OC(=O)C[C@@H](O)[C@H](C)[C@@H](O[C@@H]2O[C@H](C)[C@@H](O)[C@H](N(C)C)[C@H]2O)[C@@H](CC(C(=O)NC(C)(C)C)N(CC)C(=O)c2ccccc2)C[C@@H](C)C(=O)/C=C/C(C)=C/[C@@H]1CO[C@H]1O[C@@H](C)[C@H](O)[C@H](OC)[C@@H]1OC` (mixture of isomers) are 11% and 20%.
On the same counts, the results for `CC[C@H]1OC(=O)C[C@@H](O)[C@H](C)[C@@H](O[C@@H]2O[C@H](C)[C@@H](O)[C@H](N(C)C)[C@H]2O)[C@@H](CC(C(=O)NC(C)(C)C)N(CCCNC(=O)OCc2ccccc2)C(=O)c2ccccc2)C[C@@H](C)C(=O)/C=C/C(C)=C/[C@@H]1CO[C@H]1O[C@@H](C)[C@H](O)[C@H](OC)[C@@H]1OC` (mixture of isomers) are 47% and 64%.
`CC[C@H]1OC(=O)C[C@@H](O)[C@H](C)[C@@H](O[C@@H]2O[C@H](C)[C@@H](O)[C@H](N(C)C)[C@H]2O)[C@@H](CC(C(=O)NC(C)(C)C)N(CCNC(=O)OC(C)(C)C)C(=O)c2ccccc2)C[C@@H](C)C(=O)/C=C/C(C)=C/[C@@H]1CO[C@H]1O[C@@H](C)[C@H](O)[C@H](OC)[C@@H]1OC` (mixture of isomers): the inhibition of growth at 0.1 µM with Aliivibrio fischeri [1] is 34%. The inhibition of growth at 1 µM in the assay with Aliivibrio fischeri [2] came out at 56%.
Consider `CC[C@H]1OC(=O)C[C@@H](O)[C@H](C)[C@@H](O[C@@H]2O[C@H](C)[C@@H](O)[C@H](N(C)C)[C@H]2O)[C@@H](CC(OC(=O)c2ccccc2)C(=O)NC(C)(C)C)C[C@@H](C)C(=O)/C=C/C(C)=C/[C@@H]1CO[C@H]1O[C@@H](C)[C@H](O)[C@H](OC)[C@@H]1OC` (mixture of isomers), for which the inhibition of growth at 0.1 µM with Aliivibrio fischeri [1] was determined as 18%. Moreover, the inhibition of growth at 1 µM with Aliivibrio fischeri [2] was found to be 52%.
For `CC[C@H]1OC(=O)C[C@@H](O)[C@H](C)[C@@H](O[C@@H]2O[C@H](C)[C@@H](O)[C@H](N(C)C)[C@H]2O)[C@@H](CC(C(=O)NC2CCCCC2)N(C(=O)c2ccccc2)C(C)C)C[C@@H](C)C(=O)/C=C/C(C)=C/[C@@H]1CO[C@H]1O[C@@H](C)[C@H](O)[C@H](OC)[C@@H]1OC` (mixture of isomers), in that order: 21% and 44%.
For the compound `CC[C@H]1OC(=O)C[C@@H](O)[C@H](C)[C@@H](O[C@@H]2O[C@H](C)[C@@H](O)[C@H](N(C)C)[C@H]2O)[C@@H](CC(C(=O)NC(C)(C)C)N(C)C(=O)c2ccccc2)C[C@@H](C)C(=O)/C=C/C(C)=C/[C@@H]1CO[C@H]1O[C@@H](C)[C@H](O)[C@H](OC)[C@@H]1OC` (mixture of isomers), in the assay on Aliivibrio fischeri [1], the inhibition of growth at 0.1 µM was determined as 69%. In addition, the inhibition of growth at 1 µM in the assay on Aliivibrio fischeri [2] was 99%.
Turning to `CCCC(=O)N(C)C(C[C@H]1C[C@@H](C)C(=O)/C=C/C(C)=C/[C@H](CO[C@H]2O[C@@H](C)[C@H](O)[C@H](OC)[C@@H]2OC)[C@@H](CC)OC(=O)C[C@@H](O)[C@H](C)[C@H]1O[C@@H]1O[C@H](C)[C@@H](O)[C@H](N(C)C)[C@H]1O)C(=O)NC(C)(C)C` (mixture of isomers), the inhibition of growth at 0.1 µM with Aliivibrio fischeri [1] is 26%. The inhibition of growth at 1 µM with Aliivibrio fischeri [2] amounted to 73%.
